Data set [1] concerns IL8. In words: ELISA dosage of pro-inflammatory interleukin IL8 in RHE culture supernatant (test 2). The following applies: for IL8 quantity: RHE supernatant after 24 hours of treatment. The format is cell-based, human. The method, then:
(§1) As purely an indication, the invention is hereafter illustrated by the following tests above described in the specification (tests 1 to 3), and a comparative study (test 4). In tests 1, 2 and 4, the experimental studies have been carried out on a reconstructed human epidermis model (RHE, supplier: SkinEthic®) whose interest is a strong homology with human epidermis.
(§2) The culture of RHE consisted in placing them in a “MCDB 153” growth medium (supplier : SkinEthic®) containing […] of insulin, 1.5 mM of CaCl2 and […] of gentamycine, for 24 hours at 37° C. and 5% CO2.
(§3) The culture of RHE is identical to the one of the herebefore test 1. The dosage of the IL1 and IL8 pro-inflammatory interleukines is achieved on a supernatant resulting from culture medium after 24 hours of treatment, with the help of ELISA dosage kits (R&D System Quantikine Immunoassay, D800C, DTA00C and DLA50), and for identical configurations to those of the above test 1.

Data set [2] has as its system reconstructed human epidermis model (RHE) keratinocytes. Put plainly: Ki67 immunotracking of cell proliferation on reconstructed human epidermis (tests 1 and 4). The format is cell-based. As to conditions: for % cells expressing Ki67/number of total cells (% in relation to the control): vs PBS control. The protocol:
as §1, §2
The observation of cellular proliferation is achieved with the immunotracking technique (Gerdes and al., Int. J. Cancer (1983), vol. 31, pp. 13-20) by using the “Ki67” cell proliferation tracer, for the three following configurations (after a 100 1 twice-daily deposit on RHE): • case 1: PBS buffer solution (control) • case 2: HA fragments 150-600 kDa (concentrations 2 and 5%) • case 3: MSH complex (concentrations 2 and 5%)
Identically to the here-above test 1, keratinocytes' cellular proliferation is observed on reconstructed human epidermis RHE (with the immunotracking technique) for: • the MSH complex according to the invention (based on 150-600 kDa HA fragments) • the dimethylsilanediol hyaluronate marketed by the applicant under the “D.S.H. CN®” brand mark. • D.S.H. CN® is an organo-silicon product resulting from the combination of dimethylsilanediol with hyaluronic acid of high molecular weight (1500 to 2200 kDa HA fragments).

The subject of data set [3] is IL1α. Put plainly: ELISA dosage of pro-inflammatory interleukin IL1 in RHE culture supernatant (test 2). The following applies: for IL1α quantity: RHE supernatant after 24 hours of treatment. In kind it is cell-based, human. The protocol:
as §1, §2, §3

Data set [4] deals with bovine hyaluronidases. In words: Deterioration kinetic with hyaluronidases, agarose gel electrophoresis (test 3). The format is in vitro ADME. The following applies: 5, 15 and 30 min reaction at 37° C.; compared to fragmented HA non combined. The protocol: The experimental study consisted in measuring the deterioration kinetic of the MSH complex according to the invention submitted in vitro to bovine hyaluronidases, by electrophoresis on agarose gel. 10 1 of 1 mg/ml hyaluronidases are mixed to 50 1 of complex in a PBS buffer solution during 30 minutes at 37° C.
Successively at 5, 15 and 30 minutes, 10 1 of reaction mixture are taken, then heated at 95° C. in order to stop the enzymatic reaction. These 10 1 are then deposited on an agarose gel and a suitable stain (Stains all®) is used for the electrophoresis disclosure.

With “monomethylsilanetriol combined with one or several hyaluronic acid fragments of molecular weight between 150 and 600 kDa [MSH complex]”, the IL8 quantity in data set [1] (concentration 2.5%) was 20.1 (±7.2) pg/ml; in data set [1] (concentration 5%), 34.8 (±13.7) pg/ml. In addition, the “IL8 type-interleukines' rate” value in data set [1] (in relation to the control and to the non combined HA fragment) was “reduction”. Also, the cytostimulation entry in data set [2] (compared to non combined fragmented HA) is “potentiated cytostimulation”. Further, the “% cells expressing Ki67/number of total cells (% in relation to the control)” value in data set [2] (concentration 2.5%, twice-daily deposit, three independent experiments) was “+14 (±1.0) %”; in data set [2] (concentration 5%, twice-daily deposit, three independent experiments), “+63 (±0.5) %”; in data set [2] (test 4 (Table 4), concentration 5%), “+69.5 (±3.1) %”. For the same substance, the “induction of pro-inflammatory cytokines” value in data set [3] (RHE, 24 hours, compared with control, IL1 and IL8) is reported as “No significant induction”. The IL1α quantity is recorded as 3.5 (±1.8) pg/ml in data set [3] (concentration 2.5%) and 3.4 (±0.8) pg/ml in data set [3] (concentration 5%). Also, the “distribution of HA with a high molecular weight after hyaluronidase treatment” value in data set [4] was “more important distribution of HA with a high molecular weight”.

Values taken from patent US8822433B2, “Complex combining an organic silicon derivative with hyaluronic and acid calibrated fragments, for preventive and repairing action of cutaneous damages” (Exsymol S.A.M., priority 2008, dated 2014).
